Test results taken from patent US8039644B2, “Hydrogenated benzo (C) thiophene derivatives as immunomodulators” (Actelion Pharmaceuticals Ltd., priority 2005, dated 2011).

Biological target: recombinant human S1P1 receptor (Homo sapiens, UniProt P21453)
Test: GTPγS assay to determine EC50 values
Type: biochemical
Settings: GTPγS binding, membrane preparations of CHO cells expressing recombinant human S1P1 receptor
Experimental: GTPγS Assay to Determine EC50 Values
GTPγS binding assays are performed in 96 well microtiter plates (Nunc, 442587) in a final volume of 200 μl, using membrane preparations of CHO cells expressing recombinant human S1P1 receptor. Assay conditions are 20 mM Hepes (Fluka, 54461), 100 mM NaCl (Fluka, 71378), 5 mM MgCl2 (Fluka, 63064), 0.1% BSA (Calbiochem, 126609), 1 μM GDP (Sigma, G-7127), 2.5% DMSO (Fluka, 41644), 50 pM ^35S-GTPγS (Amersham Biosciences, SJ1320). The pH is 7.4. Test compounds are dissolved and diluted in 100% DMSO and pre-incubated at room temperature for 30 min in 150 μl of the above assay buffer, in the absence of ^35S-GTPγS. After addition of 50 μl of ^35S-GTPγS, the assay is incubated for 1 h at rt. The assay is terminated by transfer of the reaction mixture to a Multiscreen plate (Millipore, MAHFC1H60) using a cell harvester from Packard Biosciences, and the plates are washed with ice-cold 10 mM Na2HPO4/NaH2PO4 (70%/30%), dried, sealed at the bottom and, after addition of 25 μl MicroScint20 (Packard Biosciences, order#6013621), sealed on the top. Membrane-bound ^35S-GTPγS is measured with a TopCount from Packard Biosciences.
EC50 is the concentration of agonist inducing 50% of the maximal specific ^35S-GTPγS binding. Specific binding is determined by subtracting non-specific binding from maximal binding. Maximal binding is the amount of cpm bound to the Multiscreen plate in the presence of 10 μM of S1P. Non-specific binding is the amount of binding in the absence of an agonist in the assay.
The EC50 values were determined according to the method described above.

Chain of recombinant human S1P1 receptor (P21453 whole entry): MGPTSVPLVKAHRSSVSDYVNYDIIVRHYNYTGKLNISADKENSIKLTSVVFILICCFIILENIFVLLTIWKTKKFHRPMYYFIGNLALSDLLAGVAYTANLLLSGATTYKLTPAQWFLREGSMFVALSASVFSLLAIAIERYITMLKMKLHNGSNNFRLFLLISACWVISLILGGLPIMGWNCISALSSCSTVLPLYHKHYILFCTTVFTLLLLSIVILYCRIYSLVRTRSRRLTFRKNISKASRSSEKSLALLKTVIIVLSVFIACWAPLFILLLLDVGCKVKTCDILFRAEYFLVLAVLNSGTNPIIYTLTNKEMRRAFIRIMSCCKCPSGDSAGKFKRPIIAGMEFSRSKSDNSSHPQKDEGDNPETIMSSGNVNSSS

EC50 [nM]	SMILES
2.4	Cc1cc(CCC(=O)c2sc(C)c3c2CCC(C)(C)C3)cc(C)c1OC[C@@H](O)CO [Example 27]
2.8	Cc1cc(CCC(=O)c2sc(C)c3c2CCC(C)(C)C3)cc(C)c1OCC(O)CNCCC(=O)O (stereo not shown) [Example 41]
5.9	COc1cc(CCC(=O)c2sc(C)c3c2CCC(C)(C)C3)cc(Cl)c1OCC(O)CNCCC(=O)O (stereo not shown) [Example 62]
2.5	CCc1sc(C(=O)CCc2cc(C)c(OCCO)c(C)c2)c2c1CC(C)(C)CC2 [Example 66]
5.9	CCc1sc(C(=O)CCc2cc(C)c(OCC(O)COC)c(C)c2)c2c1CC(C)(C)CC2 (stereo not shown) [Example 71]
1.8	CCc1sc(C(=O)CCc2cc(C)c(OCC(O)CNC(CO)CO)c(C)c2)c2c1CC(C)(C)CC2 (stereo not shown) [Example 77]
3.7	CCc1sc(C(=O)CCc2cc(C)c(OCC(O)CNCCN)c(C)c2)c2c1CC(C)(C)CC2 (stereo not shown) [Example 79]
0.6	CCc1sc(C(=O)CCc2cc(C)c(OCC(O)CNCCC(=O)O)c(C)c2)c2c1CC(C)(C)CC2 (stereo not shown) [Example 80]
4.1	CCc1sc(C(=O)CCc2cc(C)c(OCCNC(C)C)c(C)c2)c2c1CC(C)(C)CC2 [Example 114]
3.8	Cc1cc(-c2noc(-c3scc4c3CCC(C)(C)C4)n2)cc(C)c1OCC(O)CNC(=O)CO (stereo not shown) [Example 129]
5.1	COc1cc(CCC(=O)c2sc(C)c3c2CCC(C)(C)C3)cc(Cl)c1OCC(O)CNC(=O)CO (stereo not shown) [Example 149]
1.1	CCc1sc(C(=O)CCc2ccc(OCCO)cc2OC)c2c1CC(C)(C)CC2 [Example 210]
2.9	CCc1sc(C(=O)CCc2ccc(OCCNS(C)(=O)=O)cc2OC)c2c1CC(C)(C)CC2 [Example 230]
3.1	CCc1sc(C(=O)CCc2cc(Cl)c(OCCNC(=O)CNC)c(OC)c2)c2c1CC(C)(C)CC2 [Example 247]
1.8	CCc1sc(C(=O)CCc2ccc(OCCCNS(C)(=O)=O)cc2OC)c2c1CC(C)(C)CC2 [Example 269]
1.7	CCc1sc(C(=O)CCc2cc(C)c(OCC(O)CN)c(C)c2)c2c1CC(C)(C)CC2 (stereo not shown) [Example 271]
1	CCc1sc(C(=O)CCc2cc(C)c(OCC(O)CN3CC(C(=O)O)C3)c(C)c2)c2c1CC(C)(C)CC2 (stereo not shown) [Example 296]
0.8	CCc1sc(C(=O)CCc2cc(C)c(OCC(O)CNC(=O)CN)c(Cl)c2)c2c1CC(C)(C)CC2 (stereo not shown) [Example 312]
1.8	CCc1cc(CCC(=O)c2sc(CC)c3c2CCC(C)(C)C3)cc(C)c1CCCN [Example 339, 3-[4-(3-Amino-propyl)-3-ethyl-5-methyl-phenyl]-1-(3-ethyl-5,5-dimethyl-4,5,6,7-tetrahydro-benzo[c]thiophen-1-yl)-propan-1-one]
3.4	CCc1cc(CCC(=O)c2sc(CC)c3c2CCC(C)(C)C3)cc(C)c1CCCNC(=O)CCNC [Example 351]
8	CCc1sc(C(=O)CCc2ccc(S(=O)(=O)NCCN)cc2)c2c1CC(C)(C)CC2 [Example 356, N-(2-amino-ethyl)-4-[3-(3-ethyl-5,5-dimethyl-4,5,6,7-tetrahydro-benzo[c]thiophen-1-yl)-3-oxo-propyl]-benzenesulfonamide]
6.1	CCc1sc(C(=O)CNc2ccccc2OC)c2c1CC(C)(C)CC2 [Example 378]
4.2	CCCc1sc(C(=O)CCc2cc(C)c(OC[C@H](O)CO)c(C)c2)c2c1CC(C)(C)CC2 [Example 414]
7.6	CCc1sc(C(=O)/C=C/c2cc(C)c(O)c(C)c2)c2c1CC(CC)(CC)CC2 [Example 423, 3-(4-Hydroxy-3,5-dimethyl-phenyl)-1-(3,5,5-triethyl-4,5,6,7-tetrahydro-benzo[c]thiophen-1-yl)-propenone]
6.2	Cc1cc(-c2noc(-c3scc4c3CCC3(CC3)C4)n2)cc(C)c1OCC(O)CNC(=O)CO (stereo not shown) [Example 457]
2.9	CCc1cc(CCC(=O)c2sc(C(F)(F)F)c3c2CCC(C)(C)C3)cc(C)c1OCC(O)CNC(=O)CCO (stereo not shown) [Example 489]
2.6	Cc1cc(CCC(=O)c2sc(C(F)(F)F)c3c2CCC(C)(C)C3)cc(C)c1NCC(O)CO (stereo not shown) [Example 501, 3-[4-(2,3-Dihydroxy-propylamino)-3,5-dimethyl-phenyl]-1-(5,5-dimethyl-3-trifluoromethyl-4,5,6,7-tetrahydro-benzo[c]thiophen-1-yl)-propan-1-one]
9.7	Cc1cc(C)cc(NCC(=O)c2sc(C(F)(F)F)c3c2CCC(C)(C)C3)c1 [Example 517]
